Results reported in ChEMBL document CHEMBL4699575, “Discovery of First-In-Class Potent and Selective Tropomyosin Receptor Kinase Degraders” (J Med Chem, 2020).
The source made the active and inactive calls. The rule behind the calls is not given here.

Columns and labels:
KM12 [1] = test: Induction of CRBN-mediated TMP3-TRKA (unknown origin) fusion protein degradation expressed in human KM12 cells at 10 nM for 6 hrs by immunoblot analysis relative to control; type: cell-based
KM12 [2] = test: Induction of CRBN-mediated TMP3-TRKA (unknown origin) fusion protein degradation expressed in human KM12 cells at 1 nM for 6 hrs by immunoblot analysis relative to control; type: cell-based
KM12 [3] = test: Induction of CRBN-mediated TMP3-TRKA (unknown origin) fusion protein degradation expressed in human KM12 cells at 0.1 nM for 6 hrs by immunoblot analysis relative to control; type: cell-based
[4] = molecular target: High affinity nerve growth factor receptor (Homo sapiens, UniProt P04629); test: Binding affinity to human partial length TRKA expressed in mammalian expression system by kinomescan method
Chain of High affinity nerve growth factor receptor (P04629 whole entry): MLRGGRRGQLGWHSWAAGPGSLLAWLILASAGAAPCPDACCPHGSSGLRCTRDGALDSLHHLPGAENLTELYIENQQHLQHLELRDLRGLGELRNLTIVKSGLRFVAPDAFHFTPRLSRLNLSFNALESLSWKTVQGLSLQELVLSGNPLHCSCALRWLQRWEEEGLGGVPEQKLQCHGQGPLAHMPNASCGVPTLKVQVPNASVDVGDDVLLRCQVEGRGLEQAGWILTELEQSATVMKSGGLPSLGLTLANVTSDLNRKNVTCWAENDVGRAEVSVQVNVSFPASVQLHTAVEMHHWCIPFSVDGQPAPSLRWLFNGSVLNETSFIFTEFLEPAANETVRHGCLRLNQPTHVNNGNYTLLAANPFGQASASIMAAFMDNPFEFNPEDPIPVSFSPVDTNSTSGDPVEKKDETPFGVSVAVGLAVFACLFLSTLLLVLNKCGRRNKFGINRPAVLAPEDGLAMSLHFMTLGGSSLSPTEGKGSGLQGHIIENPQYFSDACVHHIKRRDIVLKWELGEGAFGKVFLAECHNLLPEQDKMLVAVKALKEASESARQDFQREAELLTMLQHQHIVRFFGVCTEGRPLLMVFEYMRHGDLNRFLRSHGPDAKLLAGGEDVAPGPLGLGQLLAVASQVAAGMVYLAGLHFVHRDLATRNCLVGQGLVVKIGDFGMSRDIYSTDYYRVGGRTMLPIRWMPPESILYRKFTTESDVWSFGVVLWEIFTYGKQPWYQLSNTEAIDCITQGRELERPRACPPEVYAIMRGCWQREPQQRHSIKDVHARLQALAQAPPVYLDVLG

[5] = molecular target: BDNF/NT-3 growth factors receptor (Homo sapiens, UniProt Q16620); test: Binding affinity to human partial length TRKB expressed in mammalian expression system by kinomescan method
Chain of BDNF/NT-3 growth factors receptor (Q16620 whole entry): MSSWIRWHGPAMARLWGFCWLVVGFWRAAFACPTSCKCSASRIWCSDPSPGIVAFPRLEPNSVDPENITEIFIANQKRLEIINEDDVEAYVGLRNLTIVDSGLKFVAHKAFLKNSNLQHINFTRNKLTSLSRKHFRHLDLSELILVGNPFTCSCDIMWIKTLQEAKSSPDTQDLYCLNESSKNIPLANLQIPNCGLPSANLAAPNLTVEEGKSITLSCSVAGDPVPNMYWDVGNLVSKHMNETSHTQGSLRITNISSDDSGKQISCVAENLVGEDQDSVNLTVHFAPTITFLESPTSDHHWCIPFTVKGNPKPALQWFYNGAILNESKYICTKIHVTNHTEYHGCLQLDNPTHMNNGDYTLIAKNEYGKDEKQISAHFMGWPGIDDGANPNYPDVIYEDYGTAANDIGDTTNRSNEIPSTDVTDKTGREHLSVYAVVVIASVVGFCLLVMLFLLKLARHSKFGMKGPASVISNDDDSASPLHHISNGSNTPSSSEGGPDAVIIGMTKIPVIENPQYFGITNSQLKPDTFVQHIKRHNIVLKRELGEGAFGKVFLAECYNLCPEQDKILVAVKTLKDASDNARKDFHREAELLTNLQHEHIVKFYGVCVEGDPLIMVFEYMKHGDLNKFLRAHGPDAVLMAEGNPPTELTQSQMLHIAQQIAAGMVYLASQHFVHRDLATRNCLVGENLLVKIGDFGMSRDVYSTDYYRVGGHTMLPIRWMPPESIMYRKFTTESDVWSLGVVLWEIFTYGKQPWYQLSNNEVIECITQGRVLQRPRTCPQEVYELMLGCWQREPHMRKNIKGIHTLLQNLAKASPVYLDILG

[6] = Binding affinity to human partial length TRKC expressed in mammalian expression system by kinomescan method
[7] = Induction of CRBN-mediated TMP3-TRKA (unknown origin) fusion protein degradation expressed in human KM12 cells for 6 hrs by immunoblot analysis; type: cell-based; conditions: KM12, 6 h
[8] = (§1) Induction of CRBN-mediated TMP3-TRKA (unknown origin) fusion protein degradation expressed in human KM12 cells assessed as inhibition of PLC-gamma1 phosphorylation for 6 hrs by immunoblot analysis; type: cell-based; conditions: KM12, 6 h
KM12 [9] = test: as §1; type: cell-based
KM12 [10] = test: Induction of CRBN-mediated TMP3-TRKA (unknown origin) fusion protein degradation expressed in human KM12 cells at 30 nM for 6 hrs by immunoblot analysis; type: cell-based
KM12 [11] = test: Effect on GSPT1 expression in human KM12 cells at 0.04 to 30 nM for 6 hrs by immunoblot analysis; type: functional, cell-based; conditions: dose nM 0.04-30, time 6.0 hrs
KM12 [12] = test: Induction of CRBN-mediated TMP3-TRKA (unknown origin) fusion protein degradation expressed in human KM12 cells at 10 nM for 0.3 hrs by immunoblot analysis; type: cell-based
KM12 [13] = test: Induction of CRBN-mediated TMP3-TRKA (unknown origin) fusion protein degradation expressed in human KM12 cells assessed as inhibition of PLC-gamma1 phosphorylation at 10 nM for 0.3 hrs by immunoblot analysis; type: cell-based
KM12 [14] = test: Induction of CRBN-mediated TMP3-TRKA (unknown origin) fusion protein degradation expressed in human KM12 cells at 10 nM for 4 hrs by immunoblot analysis; type: cell-based
KM12 [15] = test: Induction of CRBN-mediated TMP3-TRKA (unknown origin) fusion protein degradation expressed in human KM12 cells assessed as inhibition of PLC-gamma1 phosphorylation at 10 nM for 4 hrs by immunoblot analysis; type: cell-based
[16] = molecular target: T1, Protein cereblon/High affinity nerve growth factor receptor (Homo sapiens, UniProt P04629+Q96SW2); test: Induction of CRBN-mediated TRKA degradation in human HEL cells for 6 hrs by immunoblot analysis; type: cell-based
Target sequence in this assay (P04629 whole entry, the tested form may be a part): as the sequence (P04629 whole entry) above
Target sequence in this assay (Q96SW2 whole entry, the tested form may be a part): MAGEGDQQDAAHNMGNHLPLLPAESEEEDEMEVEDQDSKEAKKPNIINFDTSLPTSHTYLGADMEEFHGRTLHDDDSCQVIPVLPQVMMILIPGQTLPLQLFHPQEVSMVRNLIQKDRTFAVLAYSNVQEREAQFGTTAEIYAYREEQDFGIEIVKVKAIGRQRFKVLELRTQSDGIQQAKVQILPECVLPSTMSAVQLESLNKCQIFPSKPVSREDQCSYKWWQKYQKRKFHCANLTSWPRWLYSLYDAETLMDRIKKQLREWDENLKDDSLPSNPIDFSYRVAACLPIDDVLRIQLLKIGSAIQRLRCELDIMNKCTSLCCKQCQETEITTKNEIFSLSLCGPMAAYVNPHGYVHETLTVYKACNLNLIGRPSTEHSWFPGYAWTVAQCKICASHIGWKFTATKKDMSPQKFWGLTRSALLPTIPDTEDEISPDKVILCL

KM12 [17] = test: Induction of CRBN-mediated AGBL4-TRKB (unknown origin) fusion protein degradation expressed in human KM12 cells at 0.7 to 500 nM for 6 hrs by immunoblot analysis; type: cell-based; conditions: dose nM 0.7-500, time 6.0 hrs
KM12 [18] = test: Induction of CRBN-mediated ETV6-TRKC (unknown origin) fusion protein degradation expressed in human KM12 cells at 0.7 to 500 nM for 6 hrs by immunoblot analysis; type: cell-based; conditions: dose nM 0.7-500, time 6.0 hrs
KM12 [19] = test: Induction of CRBN-mediated TMP3-TRKA (unknown origin) fusion protein degradation expressed in human KM12 cells at 10 nM for 6 hrs pretreated with pomalidomide by immunoblot analysis; type: cell-based
KM12 [20] = test: Induction of CRBN-mediated TMP3-TRKA (unknown origin) fusion protein degradation expressed in human KM12 cells at 10 nM for 6 hrs pretreated with MG-132 by immunoblot analysis; type: cell-based
KM12 [21] = test: Induction of CRBN-mediated TMP3-TRKA (unknown origin) fusion protein degradation expressed in human KM12 cells at 10 nM for 6 hrs pretreated with bortezomib by immunoblot analysis; type: cell-based
KM12 [22] = test: Induction of CRBN-mediated TMP3-TRKA (unknown origin) fusion protein degradation expressed in human KM12 cells at 10 nM for 6 hrs pretreated with MLN4924 by immunoblot analysis; type: cell-based
KM12 [23] = test: Antiproliferative activity against human KM12 cells assessed as reduction in cell viability measured after 3 days by Celltiter-Glo assay; type: functional, cell-based; conditions: KM12, 72 h
[24] = Cmax in ICR mouse at 10 mg/kg, ip measured for 1 hr; type: ADME, organism-based; parameters: route intraperitoneal, dose 10 mg/kg, time 1 hrs; conditions: in vivo
[25] = Plasma concentration in ICR mouse at 10 mg/kg, ip measured at 8 hrs; type: ADME, organism-based
[26] = molecular target: T2, Tropomyosin alpha-3 chain/High affinity nerve growth factor receptor (Homo sapiens) (UniProt P04629+P06753); test: Induction of TMP3-TRKA (unknown origin) fusion protein degradation expressed in human KM12 cells transfected with siCRBN-1 at 0.1 to 10 nM for 6 hrs by immunoblot analysis; type: cell-based; conditions: dose nM 0.1-10, time 6.0 hrs
T2 sequence (P04629 whole entry, looked up, the tested form may be a part): as the sequence (P04629 whole entry) above
T2 sequence (P06753 whole entry, looked up, the tested form may be a part): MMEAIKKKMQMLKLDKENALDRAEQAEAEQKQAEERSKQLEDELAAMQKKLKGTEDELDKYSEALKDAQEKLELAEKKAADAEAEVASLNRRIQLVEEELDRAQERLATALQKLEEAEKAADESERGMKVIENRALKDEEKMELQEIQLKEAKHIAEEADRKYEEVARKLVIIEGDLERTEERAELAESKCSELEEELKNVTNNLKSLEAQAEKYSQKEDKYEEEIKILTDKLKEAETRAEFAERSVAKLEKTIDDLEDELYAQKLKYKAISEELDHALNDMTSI

[27] = molecular target: T2, Tropomyosin alpha-3 chain/High affinity nerve growth factor receptor (Homo sapiens); test: Induction of TMP3-TRKA (unknown origin) fusion protein degradation expressed in human KM12 cells transfected with siCRBN-2 at 0.1 to 10 nM for 6 hrs by immunoblot analysis; type: cell-based; conditions: dose nM 0.1-10, time 6.0 hrs
[28] = Half life in ICR mouse at 10 mg/kg, ip measured upto 8 hrs; type: ADME, organism-based; conditions: in vivo
KM12 [29] = test: Effect on GSPT1 expression in human KM12 cells at 30 nM for 6 hrs by immunoblot analysis; type: functional, cell-based
[30] = molecular target: T1, Protein cereblon/High affinity nerve growth factor receptor; test: Induction of CRBN-mediated TRKA degradation in human HEL cells at 30 nM for 6 hrs by immunoblot analysis; type: cell-based
Target sequence in this assay (P04629 33-796 limits assumed): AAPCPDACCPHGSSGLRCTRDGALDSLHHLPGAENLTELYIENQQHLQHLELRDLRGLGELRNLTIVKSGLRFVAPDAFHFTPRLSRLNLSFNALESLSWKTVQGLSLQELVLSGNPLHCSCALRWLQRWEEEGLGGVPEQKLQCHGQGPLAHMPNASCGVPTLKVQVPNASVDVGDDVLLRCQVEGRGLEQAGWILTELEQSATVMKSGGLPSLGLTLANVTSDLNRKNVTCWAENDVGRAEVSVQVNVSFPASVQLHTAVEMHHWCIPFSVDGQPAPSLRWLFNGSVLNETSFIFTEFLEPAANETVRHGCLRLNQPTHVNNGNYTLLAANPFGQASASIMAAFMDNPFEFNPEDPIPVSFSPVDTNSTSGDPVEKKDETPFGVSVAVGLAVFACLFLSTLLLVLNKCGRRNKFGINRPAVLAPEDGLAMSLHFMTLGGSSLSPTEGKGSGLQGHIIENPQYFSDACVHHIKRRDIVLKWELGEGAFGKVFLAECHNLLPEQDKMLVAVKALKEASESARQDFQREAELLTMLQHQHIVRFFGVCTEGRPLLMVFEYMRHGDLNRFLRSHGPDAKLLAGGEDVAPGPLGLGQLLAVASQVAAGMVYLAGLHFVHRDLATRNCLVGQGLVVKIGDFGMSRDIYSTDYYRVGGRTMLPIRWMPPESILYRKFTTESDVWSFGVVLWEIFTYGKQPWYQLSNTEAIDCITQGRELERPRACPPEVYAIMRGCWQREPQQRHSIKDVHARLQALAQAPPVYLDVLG
Target sequence in this assay (Q96SW2 whole entry partner, the tested form may be a part): as the sequence (Q96SW2 whole entry, the tested form may be a part) above

O=C1CCC(N2C(=O)c3cccc(NCCCCC(=O)N4CCN(c5cccc(-c6cnc7ccc(N8CCC[C@@H]8c8cccc(F)c8)nn67)n5)CC4)c3C2=O)C(=O)N1 (some centres undefined)
Activity (KM12 [1]): 93% | Activity (KM12 [2]): 69% | Activity (KM12 [3]): 20%

O=C1CCC(N2C(=O)c3cccc(NCCCCCCC(=O)N4CCN(c5cccc(-c6cnc7ccc(N8CCC[C@@H]8c8cccc(F)c8)nn67)n5)CC4)c3C2=O)C(=O)N1 (some centres undefined)
Activity (KM12 [1]): 90% | Activity (KM12 [2]): 23% | Activity (KM12 [3]): 21%

O=C1CCC(N2C(=O)c3cccc(NCCOCCOCCOCCC(=O)N4CCN(c5cccc(-c6cnc7ccc(N8CCC[C@@H]8c8cccc(F)c8)nn67)n5)CC4)c3C2=O)C(=O)N1 (some centres undefined)
Activity (KM12 [1]): 86% | Activity (KM12 [2]): 28% | Activity (KM12 [3]): 22%

O=C1CCC(N2C(=O)c3cccc(NCCOCCOCCOCCOCCC(=O)N4CCN(c5cccc(-c6cnc7ccc(N8CCC[C@@H]8c8cccc(F)c8)nn67)n5)CC4)c3C2=O)C(=O)N1 (some centres undefined)
Activity (KM12 [1]): 91% | Activity (KM12 [2]): 40% | Activity (KM12 [3]): 22%

O=C1CCC(N2C(=O)c3cccc(NCCOCCC(=O)N4CCN(c5cccc(-c6cnc7ccc(N8CCC[C@@H]8c8cccc(F)c8)nn67)n5)CC4)c3C2=O)C(=O)N1 (some centres undefined)
Kd [4]: 1 nM | Activity (KM12 [1]): 96% | Activity (KM12 [2]): 82% | Activity (KM12 [3]): 46% | Kd [5]: 28 nM | Kd [6]: 4.2 nM | DC50 [7]: 0.36 nM | IC50 [8]: 30 nM | inhibition (KM12 [9]): Dose-dependent effect | Activity (KM12 [10]): Active | Activity (KM12 [11]): inactive | Activity (KM12 [12]): Active | inhibition (KM12 [13]): Active | Activity (KM12 [14]): Active | inhibition (KM12 [15]): Active | DC50 [16]: 2.23 nM | Activity (KM12 [17]): Active | Activity (KM12 [18]): Active | Activity (KM12 [19]): inactive | Activity (KM12 [20]): inactive | Activity (KM12 [21]): inactive | Activity (KM12 [22]): inactive | IC50 (KM12 [23]): 52 nM | Cmax [24]: 1640 nM | concentration at 8 h [25]: 12.4 nM

O=C1CCC(N2C(=O)c3cccc(NCCOCCOCCC(=O)N4CCN(c5cccc(-c6cnc7ccc(N8CCC[C@@H]8c8cccc(F)c8)nn67)n5)CC4)c3C2=O)C(=O)N1 (some centres undefined)
Activity (KM12 [1]): 95% | Activity (KM12 [2]): 56% | Activity (KM12 [3]): 30%

O=C1CCC(N2C(=O)c3cccc(NCCCCCC(=O)N4CCN(c5cccc(-c6cnc7ccc(N8CCC[C@@H]8c8cccc(F)c8)nn67)n5)CC4)c3C2=O)C(=O)N1 (some centres undefined)
Kd [4]: 2.1 nM | Activity (KM12 [1]): 96% | Activity (KM12 [2]): 65% | Activity (KM12 [3]): 18% | Kd [5]: 112 nM | Kd [6]: 18 nM | DC50 [7]: 0.48 nM | IC50 [8]: 30 nM | inhibition (KM12 [9]): Dose-dependent effect | Activity (KM12 [10]): Active | Activity (KM12 [11]): inactive | Activity (KM12 [12]): Active | inhibition (KM12 [13]): Active | Activity (KM12 [14]): Active | inhibition (KM12 [15]): Active | DC50 [16]: 1.26 nM | Activity (KM12 [17]): Active | Activity (KM12 [18]): Active | Activity (KM12 [19]): inactive | Activity (KM12 [20]): inactive | Activity (KM12 [21]): inactive | Activity (KM12 [22]): inactive | Activity [26]: inactive | Activity [27]: inactive | IC50 (KM12 [23]): 5.4 nM | Cmax [24]: 2050 nM | concentration at 8 h [25]: 14.8 nM | half-life [28]: 54 min

O=C1CCC(N2C(=O)c3cccc(NCC(=O)N4CCN(c5cccc(-c6cnc7ccc(N8CCC[C@@H]8c8cccc(F)c8)nn67)n5)CC4)c3C2=O)C(=O)N1 (some centres undefined)
Activity (KM12 [1]): 93% | Activity (KM12 [2]): 45% | Activity (KM12 [3]): 15%

O=C1CCC(N2C(=O)c3cccc(NCCCC(=O)N4CCN(c5cccc(-c6cnc7ccc(N8CCC[C@@H]8c8cccc(F)c8)nn67)n5)CC4)c3C2=O)C(=O)N1 (some centres undefined)
Activity (KM12 [1]): 94% | Activity (KM12 [2]): 63% | Activity (KM12 [3]): 12%

OC1CCN(c2cc(-c3cccc(-c4cnc5ccc(N6CCC[C@@H]6c6cccc(F)c6)nn45)n3)ccn2)CC1
Kd [4]: 0.81 nM | Activity (KM12 [1]): 52% | Activity (KM12 [2]): 16% | Activity (KM12 [3]): 6% | Kd [5]: 22.7 nM | Kd [6]: 5.4 nM | IC50 (KM12 [23]): 16 nM

CN1C(=O)CCC(N2C(=O)c3cccc(NCCOCCC(=O)N4CCN(c5cccc(-c6cnc7ccc(N8CCC[C@@H]8c8cccc(F)c8)nn67)n5)CC4)c3C2=O)C1=O (some centres undefined)
Kd [4]: 0.88 nM | Kd [5]: 59.8 nM | Kd [6]: 4.8 nM | Activity (KM12 [29]): inactive | Activity [30]: inactive | IC50 (KM12 [23]): 28 nM

O=C1CCC(N2C(=O)c3cccc(NCCCCCCCC(=O)N4CCN(c5cccc(-c6cnc7ccc(N8CCC[C@@H]8c8cccc(F)c8)nn67)n5)CC4)c3C2=O)C(=O)N1 (some centres undefined)
Activity (KM12 [1]): 83% | Activity (KM12 [2]): 21% | Activity (KM12 [3]): 20%

CN1C(=O)CCC(N2C(=O)c3cccc(NCCCCCC(=O)N4CCN(c5cccc(-c6cnc7ccc(N8CCC[C@@H]8c8cccc(F)c8)nn67)n5)CC4)c3C2=O)C1=O (some centres undefined)
Kd [4]: 2.9 nM | Kd [5]: 187 nM | Kd [6]: 24.2 nM | Activity (KM12 [29]): inactive | Activity [30]: inactive | IC50 (KM12 [23]): 2.9 nM

O=C1CCC(N2C(=O)c3cccc(NCCC(=O)N4CCN(c5cccc(-c6cnc7ccc(N8CCC[C@@H]8c8cccc(F)c8)nn67)n5)CC4)c3C2=O)C(=O)N1 (some centres undefined)
Activity (KM12 [1]): 65% | Activity (KM12 [2]): 15% | Activity (KM12 [3]): 9%
